The source of these data is patent US10532985B2, “Heterocycle and carbocycle derivatives having TRKA inhibitory activity” (Shionogi & Co., Ltd., priority 2014, dated 2020).

The target in one test is T1, human TrkA (Homo sapiens, UniProt P04629).
T1 construct: purchased Lifetechnologies PV3144
T1 sequence (P04629 33-796): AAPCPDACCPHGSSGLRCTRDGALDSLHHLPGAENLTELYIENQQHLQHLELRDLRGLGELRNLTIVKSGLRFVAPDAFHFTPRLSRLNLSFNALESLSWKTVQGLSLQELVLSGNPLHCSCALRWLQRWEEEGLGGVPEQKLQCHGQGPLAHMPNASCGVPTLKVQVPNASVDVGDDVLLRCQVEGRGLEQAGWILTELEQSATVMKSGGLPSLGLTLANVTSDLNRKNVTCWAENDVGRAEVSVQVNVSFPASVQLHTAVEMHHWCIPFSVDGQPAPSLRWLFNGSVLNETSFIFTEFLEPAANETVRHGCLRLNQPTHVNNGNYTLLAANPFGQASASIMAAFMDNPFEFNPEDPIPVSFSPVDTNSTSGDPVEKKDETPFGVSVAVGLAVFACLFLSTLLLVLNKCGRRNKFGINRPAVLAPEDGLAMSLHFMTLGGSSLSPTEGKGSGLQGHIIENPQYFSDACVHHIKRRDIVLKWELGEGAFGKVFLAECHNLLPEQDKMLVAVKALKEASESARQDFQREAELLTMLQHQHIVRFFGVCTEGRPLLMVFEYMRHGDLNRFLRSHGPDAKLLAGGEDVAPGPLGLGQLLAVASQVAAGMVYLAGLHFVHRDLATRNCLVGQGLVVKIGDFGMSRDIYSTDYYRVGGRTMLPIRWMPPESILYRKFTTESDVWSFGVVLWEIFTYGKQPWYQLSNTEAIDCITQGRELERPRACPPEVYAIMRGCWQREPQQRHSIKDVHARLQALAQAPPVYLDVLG
As to the kind of experiment: Test Example 2-2: Human TrkA Inhibition Assay. The format is biochemical. Conditions: class symbols, read-out: IC50_nM. The procedure: Seven point five μL per well of human TrkA (PV3144, Lifetechnologies, final concentration: 1 nmol/L) suspended in the assay buffer (100 mmol/L 4-(2-hydroxyethyl)-1-piperazineethanesulfonic acid (HEPES), 10 mmol/L magnesium chloride, 0.003 vol % Brij-35, 0.004 vol % Tween20 and 1 mmol/L dithiothreitol (DTT)) was applied in a 384 well plate and the plate was pre-incubated for 15 min at room temperature with 0.4 μL of each compound (final concentration: […]) dissolved in DMSO. Then, fluorescent substrate (FL-peptide 27, 760424, PerkinElmer, final concentration: 1.5 μmol/L) and ATP (final concentration […]) dissolved in the assay buffer was added in each well. After the incubation of 120 min at 37° C., fifteen μL of termination buffer (100 mmol/L HEPES, 40 mmol/L ethylenediaminetetraacetic acid (EDTA), 10 mmol/L magnesium chloride, 0.003 vol % Brij-35, 0.004 vol % Tween20, 1 mmol/L DTT and 0.16 vol % Coating Reagent 3) was added in each well to stop the enzyme reaction. Fluorescent intensities (FI) of phosphorylated and non-phosphorylated fluorescent substrates were measured by LabChip EZReader II (Caliper LifeSciences, Inc.), and conversion ratio (CR) was calculated by the following formula-1. The CR in the well applied with DMSO alone was used as a negative control and the CR in the well without applying TrkA was used as a positive control. The inhibitory effect of each compound on TrkA phosphorylation was calculated by the following formula-2. CR (%)=(FI of phosphorylated substrate/(FI of phosphorylated substrate+FI of non-phosphorylated substrate))×100 (Formula-1) Phosphorylation inhibition (%)=(1−(CR with compound treatment−CR of positive control)/(CR of negative control−CR of positive control))×100 (Formula-2) Inhibitory effect on TrkA phosphorylation (%)=(1−(CR in compound treated well−CR in positive control)/(CR in negative control−CR in positive control))×100.
The 50/o inhibitory concentration (IC50) was determined by the logistic regression using the inhibition data in 10 points at a range of 2 μmol/L to 0.1 nmol/L or 200 μmol/L to 10 nmol/L).
Consider `COCC[C@@H]1C[C@@H](NC(=O)Nc2c(C)c(C3=CCN(C(=O)OC)CC3)nn2-c2ccccc2)[C@H](c2ccccc2)C1` [Compound I-268], for which the IC50 is below 0.1 µM.
Turning to `COCC(O)C1C[C@@H](NC(=O)Nc2c(C)c(-c3cnn(C)c3)nn2-c2ccccc2)[C@H](c2ccccc2)C1` (stereo partly drawn) [Compound I-271], the IC50 fell in the range of 0.1 to 1 µM.
Regarding `COCC[C@@H]1C[C@@H](NC(=O)Nc2c(C)c(-c3cnn(C)c3)nn2-c2ccccc2)[C@H](c2ccc(F)cc2)N1C` [Compound I-275], the IC50 is below 0.1 µM.
Still for that read-out and setting: with `COCCN1C[C@@H](NC(=O)Nc2c(C)c(-c3cnn(C)c3)nn2-c2ccccc2)[C@H](c2ccc3c(c2)COC3)C1` (racemic) [Compound I-274] the figure was 0.1 to 1 µM.

Still in this test, the particulars now being: human TrkA 1 nmol/L, 120 min at 37° C., read-out: TrkA inhibition IC50.
Turning to `COCCN1C[C@@H](OC(=O)Nc2c(C)c(-c3cnn(C)c3)nn2-c2ccccc2)[C@H](c2ccc(F)c(F)c2)C1` (racemic) [Compound I-1], the IC50 is 0.12 µM.
On the same count and under the same terms, with `Cc1c(-c2cnn(C)c2)nn(-c2ccccc2)c1NC(=O)N[C@@H]1CN(Cc2ccco2)C[C@H]1c1ccc(F)c(F)c1` [Compound I-86] the figure was 0.0018 µM.
Still for that read-out and setting: for `COCCN1C[C@@H](NC(=O)Nc2c(C)c(-c3cnn(C)c3)nn2-c2ccccc2)[C@](C)(c2ccccc2)C1` (racemic) [Compound I-16] the value was 0.41 µM; for `CNC(=O)C(COC)N1C[C@@H](NC(=O)Nc2c(C)c(-c3cnn(C)c3)nn2-c2ccccc2)[C@H](c2ccc(F)c(F)c2)C1` (stereo partly drawn) [Compound I-109], 0.22 µM; for `Cc1c(-c2cnn(C)c2)nn(-c2ccccc2)c1NC(=O)N[C@@H]1CN(CCOC2CC2)C[C@H]1c1ccnc(F)c1` (racemic) [Compound I-267], 0.024 µM.
With `CC(=O)CN1C[C@@H](NC(=O)Nc2c(C)c(-c3cnn(C)c3)nn2-c2ccccc2)[C@H](c2ccc(F)c(F)c2)C1` [Compound I-185], the IC50 is 1.5 µM.
Same read-out and setting: with `Cc1c(-c2cnn(C)c2)nn(-c2ccccc2)c1NC(=O)N[C@@H]1CN(Cc2ccc(Br)o2)C[C@H]1c1ccc(F)c(F)c1` [Compound I-190] the figure was 0.0013 µM; with `COCC[C@@H]1C[C@@H](NC(=O)Nc2c(C)c(-c3cnc(C)nc3)nn2-c2ccccc2)[C@H](c2ccc(F)c(F)c2)N1` [Compound I-256], 0.0082 µM.

The same test, now with this note: human TrkA inhibition, class symbols A/B/C, read-out: IC50_nM.
As for `COCCC1C[C@@H](NC(=O)Nc2cc(C(F)(F)F)cnc2-c2ccccc2)[C@H](c2ccccc2)C1` (relative stereo) [Compound I-201], the IC50 is below 0.1 µM.
Turning to `COCC(C(=O)OC)[C@@H]1C[C@@H](NC(=O)Nc2c(C)c(-c3cnn(C)c3)nn2-c2ccccc2)[C@H](c2ccccc2)C1` (mixture of isomers) [Compound I-243], the IC50 is above 1 µM.
Still for that read-out and setting: for `COCC(O)[C@H]1C[C@@H](NC(=O)Nc2c(C)c(-c3cnn(C)c3)nn2-c2ccccc2)[C@H](c2ccc(F)c(F)c2)N1` (stereo partly drawn) [Compound I-215] the value was 0.1 to 1 µM; for `COCC[C@@H]1C[C@@H](NC(=O)Nc2c(C)c(C3=CCNCC3)nn2-c2ccccc2)[C@H](c2ccccc2)C1` [Compound I-266], below 0.1 µM; for `CCOC(=O)C(COC)[C@@H]1C[C@@H](NC(=O)Nc2c(C)c(-c3cnn(C)c3)nn2-c2ccccc2)[C@H](c2ccccc2)C1` (mixture of isomers) [Compound I-238], above 1 µM.
`COCC[C@@H]1C[C@@H](NC(=O)Nc2c(C)c(-c3ccc(C(=O)OC(C)(C)C)cc3)nn2-c2ccccc2)[C@H](c2ccc(F)c(F)c2)N1C` [Compound I-236]: the IC50 was below 0.1 µM.
In the case of `COCC(O)[C@H]1C[C@@H](NC(=O)Nc2c(C)c(-c3cnn(C)c3)nn2-c2ccccc2)[C@H](c2ccc(F)c(F)c2)N1C` (stereo partly drawn) [Compound I-229], the IC50 was below 0.1 µM.
Same read-out and setting: with `Cc1c(-c2cnn(C)c2)nn(-c2ccccc2)c1NC(=O)N[C@@H]1CN(Cc2csc(Br)n2)C[C@H]1c1ccc(F)c(F)c1` [Compound I-205] the figure was below 0.1 µM.
On to `COCC(OC)[C@H]1C[C@@H](NC(=O)Nc2c(C)c(-c3cnn(C)c3)nn2-c2ccccc2)[C@H](c2ccc(F)c(F)c2)N1C` (stereo partly drawn) [Compound I-231], for which the IC50 was above 1 µM.
On to `COCC[C@@H]1C[C@@H](NC(=O)Nc2c(C)c(-c3cnn(C)c3)nn2-c2ccccc2)[C@H](c2ccccc2)N1` [Compound I-242], for which the IC50 lay in the range of 0.1 to 1 µM.
On the same count and under the same terms, for `COCCC1C[C@@H](NC(=O)Nc2c(C)c(OCC(C)(C)O)nn2-c2ccccc2)[C@H](c2ccccc2)C1` (relative stereo) [Compound I-182] the value was 0.1 to 1 µM; for `COCCC1C[C@@H](NC(=O)Nc2c(C)c(-c3cnn(C)c3)nn2-c2ccccc2)[C@H](c2ccc(F)c(F)c2)N1CC(=O)OC` (stereo partly drawn) [Compound I-198], above 1 µM.
For `COCC[C@@H]1C[C@@H](NC(=O)Nc2c(C)c(-c3cnc(C)nc3)nn2-c2ccccc2)[C@H](c2ccccc2)C1` [Compound I-263], the IC50 is below 0.1 µM.
For `Cc1ccc(CN2C[C@@H](NC(=O)Nc3c(C)c(-c4cnn(C)c4)nn3-c3ccccc3)[C@H](c3ccc(F)c(F)c3)C2)o1` [Compound I-193], the IC50 was below 0.1 µM.
Same read-out and setting: with `COCC[C@@H]1C[C@@H](NC(=O)Nc2c(C)c(C3=CCN(C(=O)OC(C)(C)C)CC3)nn2-c2ccccc2)[C@H](c2ccc(F)c(F)c2)N1C` [Compound I-259] the figure was below 0.1 µM.
Same read-out and setting: for `COCC[C@@H]1C[C@@H](NC(=O)Nc2c(C)c(-c3cnn(C)c3)nn2-c2ccccc2)[C@H](c2ccccc2)[C@H]1C(F)F` [Compound I-253] the value was below 0.1 µM; for `COCCC1C[C@@H](NC(=O)Nc2cc(-c3ccc(C(=O)OC)cc3)nn2C)[C@H](c2ccccc2)C1` (relative stereo) [Compound I-181], above 1 µM.
For the molecule `Cc1cc(CN2C[C@@H](NC(=O)Nc3c(C)c(-c4cnn(C)c4)nn3-c3ccccc3)[C@H](c3ccc(F)c(F)c3)C2)oc1C` [Compound I-203], the IC50 was in the range of 0.1 to 1 µM.
As to `COC(=O)C(c1ccco1)N1C[C@@H](NC(=O)Nc2c(C)c(-c3cnn(C)c3)nn2-c2ccccc2)[C@H](c2ccc(F)c(F)c2)C1` (stereo partly drawn) [Compound I-177], the IC50 lay in the range of 0.1 to 1 µM.
On to `COCCC1C[C@@H](NC(=O)Nc2cc(-c3ccc(C(=O)O)cc3)nn2C)[C@H](c2ccccc2)C1` (stereo partly drawn) [Compound I-199], for which the IC50 was above 1 µM.
Regarding `COCC(c1ccco1)N1C[C@@H](NC(=O)Nc2c(C)c(-c3cnn(C)c3)nn2-c2ccccc2)[C@H](c2ccc(F)c(F)c2)C1` (stereo partly drawn) [Compound I-186], the IC50 fell in the range of 0.1 to 1 µM.
Still for that read-out and setting: with `CO[C@@H]1C[C@@H](NC(=O)Nc2c(C)c(-c3cnn(C)c3)nn2-c2ccccc2)[C@H](c2ccccc2)C1` (racemic) [Compound I-210] the figure was 0.1 to 1 µM.
On the same count and under the same terms, with `COCCC1C[C@@H](NC(=O)Nc2c(C)c(-c3cnn(C)c3)nn2-c2ccccc2)[C@H](c2ccc(F)c(F)c2)C1` (stereo partly drawn) [Compound I-187] the figure was below 0.1 µM; with `COCC(COS(C)(=O)=O)[C@@H]1C[C@@H](NC(=O)Nc2c(C)c(-c3cnn(C)c3)nn2-c2ccccc2)[C@H](c2ccccc2)C1` (stereo partly drawn) [Compound I-245], above 1 µM.
Regarding `COCCN1C[C@@H](NC(=O)Nc2c(C)c(-c3cnn(C)c3)nn2-c2ccccc2)[C@H](c2ccc3occc3c2)C1` (racemic) [Compound I-232], the IC50 lay in the range of 0.1 to 1 µM.
On to `COCCC1C[C@@H](NC(=O)Nc2c(C)c(-c3cnn(C)c3)nn2-c2ccccc2)[C@H](c2ccc(O)cc2)C1` (stereo partly drawn) [Compound I-222], for which the IC50 was below 0.1 µM.

The target in another test is T1, human TrkA. As to the kind of experiment: Test Example 2: Human TrkA Inhibition Assay. Conditions: Test Example 2; human TrkA 2.5 nmol/L, ATP 500 μmol/L, 90 min at room temperature; read-out: TrkA inhibitory activity IC50. The format is biochemical. Put shortly: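 Mobility-shift kinase assay: 90 min reaction at room temperature, stopped with EDTA buffer; phosphorylated and non-phosphorylated fluorescent substrate measured, conversion ratio calculated. Inhibition % normalised between DMSO-only wells and no-TrkA wells.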
With `COCCN1C[C@@H](OC(=O)Nc2c(C)c(-c3cnn(C)c3)nn2-c2ccccc2)[C@H](c2ccc(F)c(F)c2)C1` (racemic) [Compound I-1], the IC50 stood at 0.083 µM.
Same read-out and setting: with `Cc1c(-c2cnn(C)c2)nn(-c2ccccc2)c1NC(=O)N[C@@H]1CN(Cc2ccco2)C[C@H]1c1ccc(F)c(F)c1` [Compound I-86] the figure was 0.0011 µM.
Still for that read-out and setting: with `COCCN1C[C@@H](NC(=O)Nc2c(C)c(-c3cnn(C)c3)nn2-c2ccccc2)[C@](C)(c2ccccc2)C1` (racemic) [Compound I-16] the figure was 0.121 µM; with `CNC(=O)C(COC)N1C[C@@H](NC(=O)Nc2c(C)c(-c3cnn(C)c3)nn2-c2ccccc2)[C@H](c2ccc(F)c(F)c2)C1` (stereo partly drawn) [Compound I-109], 0.095 µM.
